Laboratory results reported in patent US9415087B2, “Compositions and methods for treating coronavirus infection” (LUDWIG-MAXIMILIANS-UNIVERSITAET MUENCHEN, priority 2014, dated 2016).
Entries after “also recorded” stand apart in the source; their conditions may differ. Where two headings read alike, the source gives them in different places.

Experiments:
human CypA = human CypA (Homo sapiens, UniProt P62937); format: biochemical; conditions: protease-coupled PPIase assay; read-out: In vitro inhibition human CypA IC50
human CypA, sequence (P62937 whole entry): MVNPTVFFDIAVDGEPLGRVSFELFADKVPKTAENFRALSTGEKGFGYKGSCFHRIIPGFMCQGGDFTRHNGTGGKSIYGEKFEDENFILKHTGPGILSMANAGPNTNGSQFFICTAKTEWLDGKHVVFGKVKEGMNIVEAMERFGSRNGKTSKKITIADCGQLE

CnA = CnA (Homo sapiens, UniProt P62937+P63098+Q08209); format: biochemical; conditions: for IC50: read-out: In vitro inhibition CnA IC50
CnA, sequence (P62937 whole entry, other chains not shown): as the sequence (P62937 whole entry) above
CnA, sequence (P63098 2-170, other chains not shown): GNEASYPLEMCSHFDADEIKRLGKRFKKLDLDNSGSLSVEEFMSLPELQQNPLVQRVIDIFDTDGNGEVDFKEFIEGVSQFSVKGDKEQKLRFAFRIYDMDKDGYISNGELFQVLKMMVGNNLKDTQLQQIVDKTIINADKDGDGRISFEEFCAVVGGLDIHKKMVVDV

NFAT = NFAT reporter gene assay (luciferase) in Jurkat cells; format: cell-based; conditions: luciferase-coupled NFAT reporter gene assay; for IC50: read-out: In vitro inhibition NFAT reporter gene assay IC50
HCoV-NL63 = assay: microbe, parasite or virus in culture; format: cell-based; conditions: read-out: Inhibition of HCoV-NL63 in CaCo-2 EC50
NFAT-GFP = NFAT-GFP nuclear translocation assay; conditions: 40 nM compound, ionomycin 2 μM; yes = non-immunosuppressive
HCoV-NL63 N protein = assay: Western blot of N protein expression in HCoV-NL63-infected CaCo2 cells; format: cell-based; conditions: 48 hours, 0 to 20 μM
HCoV-229E-LUC = assay: microbe, parasite or virus in culture; format: cell-based; conditions: for inhibition of 229E-LUC replication (in words): Huh-7.5 cells
HCoV-229E N protein = format: cell-based; conditions: 48 h
[1] = tested on: Feline Coronavirus (FCoV-LUC); assay: FCoV-LUC replication in Felis catus whole fetus (fcwf) cells, Renilla luciferase; format: cell-based; conditions: micromolar concentration, FIG. 10
SARS-CoV-Replicon RNA = format: cell-based; conditions: BHK-21 cells, 20 hours, FIG. 11
[2] = tested on: Mouse Hepatitis Virus (MHV-LUC); assay: MHV-LUC replication in L929 cells, luciferase activity; conditions: micromolar concentration, FIG. 12
lymphocyte proliferation = conditions: Sadeg et al. 1993; cited from earlier work
[3] = Human coronavirus NL63, Caco-2, 48 h
[4] = Human coronavirus 229E, Huh7.5, 18 h, read-out: EC50 HCoV-229E-LUC, 18 hrs p.I., Huh-7.5, MOI=0.1
[5] = Human coronavirus 229E, Huh7.5, 48 h, read-out: EC50 HCoV-229E-LUC, 48 hrs p.I., Huh-7.5, MOI=0.1

SMILES | IC50 (human CypA) [µM] | EC50 (HCoV-NL63) [µM] | NFAT-GFP translocation in HEK-293 cells (to the nucleus) (NFAT-GFP) | EC50 (HCoV-NL63; [3]) [µM] | concentration at which HCoV-NL63 N-protein decreases (HCoV-NL63 N protein) [µM] | inhibition of 229E-LUC replication (in words) (HCoV-229E-LUC) | EC50 (HCoV-229E-LUC; [4]) [µM] | EC50 (HCoV-229E-LUC; [5]) [µM] | also measured
CCOP(=O)(CC=CCC(C)C(O)C1C(=O)NC(CC)C(=O)N(C)CC(=O)N(C)C(CC(C)C)C(=O)NC(C(C)C)C(=O)N(C)C(CC(C)C)C(=O)NC(C)C(=O)NC(C)C(=O)N(C)C(CC(C)C)C(=O)N(C)C(CC(C)C)C(=O)N(C)C(C(C)C)C(=O)N1C)OCC (mixture of isomers) [Compound 1] | 0.0091 | 1.6 | yes | – | – | – | – | – | In vitro inhibition CnA IC50 (CnA; binary PPIase/drug complexes): could not be inhibited at all and no; In vitro inhibition NFAT reporter gene assay IC50 (NFAT): no
C/C=C/C[C@@H](C)[C@@H](O)[C@H]1C(=O)N[C@@H](CC)C(=O)N(C)[C@H](C)C(=O)N(CC)[C@@H](C(C)C)C(=O)N[C@@H](C(C)C)C(=O)N(C)[C@@H](CC(C)C)C(=O)N[C@@H](C)C(=O)N[C@H](C)C(=O)N(C)[C@@H](CC(C)C)C(=O)N(C)[C@@H](CC(C)C)C(=O)N(C)[C@@H](C(C)C)C(=O)N1C [ALV, Alisporivir] | – | – | yes | 0.8 | 1.25 | low micromolar range | 2.77 | 1.37 | concentration at which HCoV-229E N protein is not detectable anymore (HCoV-229E N protein; Western blot): 1.25 µM; inhibition of feline Coronavirus spread (in words) [1]: inhibits spread; inhibition of SARS-CoV-RNA replicon propagation (in words) (SARS-CoV-Replicon RNA): inhibition; inhibition of murine Coronavirus spread (in words) [2]: inhibits spread
CCC1NC(=O)C(C(O)C(C)CC=CCN(C)C)N(C)C(=O)C(C(C)C)N(C)C(=O)C(CC(C)C)N(C)C(=O)C(CC(C)C)N(C)C(=O)C(C)NC(=O)C(C)NC(=O)C(CC(C)C)N(C)C(=O)C(C(C)C)NC(=O)C(CC(C)C)N(C)C(=O)CN(C)C1=O (centres unmarked) [Compound 2] | – | 7.9 | yes | – | – | – | – | – | –
CCC1NC(=O)C(C(O)C(C)Cc2nc3ccc(C(=O)OC)cc3[nH]2)N(C)C(=O)C(C(C)C)N(C)C(=O)C(CC(C)C)N(C)C(=O)C(CC(C)C)N(C)C(=O)C(C)NC(=O)C(C)NC(=O)C(CC(C)C)N(C)C(=O)C(C(C)C)NC(=O)C(CC(C)C)N(C)C(=O)CN(C)C1=O (centres unmarked) [Compound 3] | 0.0119 | 1.1 | yes | – | 1.25 | low micromolar range | – | – | IC50 (CnA): 6.9 µM; EC50 (HCoV-229E-LUC; 18 hrs p.I., Huh-7.5, MOI=0.1, read-out: EC50 HCoV-229E-LUC): 2.05 µM; EC50 (HCoV-229E-LUC; 48 hrs p.I., Huh-7.5, MOI=0.1, listed as Comp. 3, read-out: EC50 HCoV-229E-LUC): 0.92 µM; EC50 (HCoV-229E-LUC; 48 hrs p.I., Huh-7.5, MOI=0.1, read-out: EC50 HCoV-229E-LUC): 0.97 µM
CCC1NC(=O)C(C(O)C(C)Cc2nc3ccc(C(=O)c4ccccc4)cc3[nH]2)N(C)C(=O)C(C(C)C)N(C)C(=O)C(CC(C)C)N(C)C(=O)C(CC(C)C)N(C)C(=O)C(C)NC(=O)C(C)NC(=O)C(CC(C)C)N(C)C(=O)C(C(C)C)NC(=O)C(CC(C)C)N(C)C(=O)CN(C)C1=O (centres unmarked) [Compound 4] | 0.0141 | 8.1 | yes | – | – | – | – | – | IC50 (CnA; binary PPIase/drug complexes): ~10 µM; IC50 (NFAT): 1.3 µM
CCC1NC(=O)C(C(O)C(C)Cc2nc3ccc(-c4nc5ccccc5s4)cc3[nH]2)N(C)C(=O)C(C(C)C)N(C)C(=O)C(CC(C)C)N(C)C(=O)C(CC(C)C)N(C)C(=O)C(C)NC(=O)C(C)NC(=O)C(CC(C)C)N(C)C(=O)C(C(C)C)NC(=O)C(CC(C)C)N(C)C(=O)CN(C)C1=O (centres unmarked) [Compound 5] | 0.0166 | 2.3 | yes | – | – | – | – | – | IC50 (CnA; binary PPIase/drug complexes): > 10 µM; IC50 (NFAT): 1.2 µM
C/C=C/C[C@@H](C)[C@@H](O)[C@H]1C(=O)N[C@@H](C(C)C)C(=O)N(C)CC(=O)N(C)[C@@H](CC(C)C)C(=O)N[C@@H](C(C)C)C(=O)N(C)[C@@H](CC(C)C)C(=O)N[C@@H](C)C(=O)N[C@H](C)C(=O)N(C)[C@@H](CC(C)C)C(=O)N(C)[C@@H](CC(C)C)C(=O)N(C)[C@@H](C(C)C)C(=O)N1C [CsD] | – | 2.5 | remained in the cytoplasm and no | – | – | – | – | – | immunosuppressant activity in lymphocyte proliferation assays relative to CsA (lymphocyte proliferation): about 10 % of the CsA activity
C/C=C/C[C@@H](C)[C@@H](O)[C@H]1C(=O)N[C@@H](CC)C(=O)N(C)CC(=O)N(C)[C@@H](CC(C)C)C(=O)N[C@@H](C(C)C)C(=O)N(C)[C@@H](CC(C)C)C(=O)N[C@@H](C)C(=O)N[C@H](C)C(=O)N(C)[C@@H](CC(C)C)C(=O)N(C)[C@@H](CC(C)C)C(=O)N(C)[C@H](C(C)C)C(=O)N1C [CsH, Cyclosporin H] | – | – | – | – | – | slight residual inhibitory activity; also recorded: do not inhibit | – | – | HCoV-229E N protein synthesis (in words) (HCoV-229E N protein; at 20 μM): allow significant N protein synthesis
C=CC[C@@H]1/C=C(\C)C[C@H](C)C[C@H](OC)[C@H]2O[C@@](O)(C(=O)C(=O)N3CCCC[C@H]3C(=O)O[C@H](/C(C)=C/[C@@H]3CC[C@@H](O)[C@H](OC)C3)[C@H](C)[C@@H](O)CC1=O)[C@H](C)C[C@@H]2OC [FK506] | – | – | – | 6.6 | – | – | 2.96 | 0.86 | –
C/C=C/C[C@@H](C)[C@@H](O)[C@H]1C(=O)N[C@@H](CC)C(=O)N(C)CC(=O)N(C)[C@@H]([C@@H](C)CC)C(=O)N[C@@H](C(C)C)C(=O)N(C)[C@@H](CC(C)C)C(=O)N[C@@H](C)C(=O)N[C@H](C)C(=O)N(C)[C@@H](CC(C)C)C(=O)N(C)[C@@H](CC(C)C)C(=O)N(C)[C@@H](C(C)C)C(=O)N1C [NIM811] | – | – | yes | 0.8 | 1.25 | low micromolar range | 3.11 | 1.19 | inhibition of feline Coronavirus spread (in words) [1]: inhibits spread; inhibition of SARS-CoV-RNA replicon propagation (in words) (SARS-CoV-Replicon RNA): inhibition; inhibition of murine Coronavirus spread (in words) [2]: inhibits spread
